Patent US20100158808A1, “Altered Activity of Toll-Like Receptors” (priority 2003, published 2010)

Molecular target: T1, TLR4 (Mus musculus, UniProt Q9JHF9+Q9QUK6)
T1 sequence (Q9QUK6 26-835): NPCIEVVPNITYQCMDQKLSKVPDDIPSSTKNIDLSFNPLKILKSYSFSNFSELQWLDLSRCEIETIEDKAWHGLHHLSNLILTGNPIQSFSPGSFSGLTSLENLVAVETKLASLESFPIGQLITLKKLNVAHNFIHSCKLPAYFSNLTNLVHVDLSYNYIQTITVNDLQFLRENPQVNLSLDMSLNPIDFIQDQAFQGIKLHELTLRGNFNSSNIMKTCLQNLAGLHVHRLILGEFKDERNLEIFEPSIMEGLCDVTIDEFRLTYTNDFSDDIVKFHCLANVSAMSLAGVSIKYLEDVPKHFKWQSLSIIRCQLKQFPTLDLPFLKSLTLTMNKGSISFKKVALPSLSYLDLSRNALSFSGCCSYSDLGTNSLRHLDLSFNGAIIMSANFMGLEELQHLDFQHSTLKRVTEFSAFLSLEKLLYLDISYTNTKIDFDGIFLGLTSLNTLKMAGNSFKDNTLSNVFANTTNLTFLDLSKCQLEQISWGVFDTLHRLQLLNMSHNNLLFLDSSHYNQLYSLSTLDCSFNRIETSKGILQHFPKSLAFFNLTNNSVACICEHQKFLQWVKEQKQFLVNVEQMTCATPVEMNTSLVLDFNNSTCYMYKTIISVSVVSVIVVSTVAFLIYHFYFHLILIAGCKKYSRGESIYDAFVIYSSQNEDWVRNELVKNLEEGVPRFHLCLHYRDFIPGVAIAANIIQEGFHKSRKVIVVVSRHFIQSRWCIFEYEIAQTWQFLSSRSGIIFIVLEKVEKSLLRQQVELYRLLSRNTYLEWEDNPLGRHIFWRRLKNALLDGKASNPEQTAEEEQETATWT
T1 sequence (Q9JHF9 19-160): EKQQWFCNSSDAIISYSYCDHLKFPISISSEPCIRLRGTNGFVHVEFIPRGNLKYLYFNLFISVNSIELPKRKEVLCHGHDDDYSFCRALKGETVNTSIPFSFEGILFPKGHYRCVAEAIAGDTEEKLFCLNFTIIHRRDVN
Assay: NFκB-luciferase reporter assay in HEK 293 cells stably expressing TLR4, MD2 and/or CD14
Assay type: cell-based, murine
Design: expressed in transfected cells; host or cells: HEK 293
Procedure: Model ECM environment. Tissue culture plates were coated with ECM as follows. PAEC were seeded into 6-well (3×10^5 cells/well), 24-well (5×10^4 cells/well) or 100 mm (2×10^5 cells) fibronectin-coated tissue culture plates (BD Biosciences, San Jose, Calif.) in DMEM (Invitrogen) containing 10% fetal bovine serum supplemented with penicillin and streptomycin and 4% w/v of Dextran 40. The cell cultures were incubated at 37° C. in 5% CO2 humidified atmosphere for seven days and were supplemented with […] on day three and day five. After 7 days, endothelial cells were washed once with phosphate buffered saline (PBS) and lysed by exposure to 0.5% w/v Triton X-100 and 20 mM NH4OH in PBS (pH 7.4) at 37° C. for 20 minutes (Bonifacino, 1998). The wells were then washed 4 times with PBS (pH 7.4) and inspected microscopically to ensure removal of the cells. Plates were used immediately or were stored in PBS (pH 7.4) with […] at 4° C.
HEK 293 cells were stably transfected with the TLR4 and MD2 or CD14 expression plasmids using Superfect (Qiagen, Valencia, Calif.) following the manufacturer's instructions. HEK 293 cells expressing TLR4 and MD2 or CD14 were obtained by culturing the transfected cells with appropriate antibiotic selection medium, and were cloned by limiting dilution in the selection medium. HEK 293 cells expressing TLR4, MD2 and CD14 were generated by transfecting HEK 293 cells that expressed TLR4 and MD2 with the CD14 expression plasmid, and selecting clones using appropriate antibiotic containing medium. Cell lines expressing TLR4 and MD2 and/or CD14 were then maintained in DMEM supplemented with 10% fetal bovine serum and the appropriate selection antibiotics. Control cell lines were transfected with empty expression vectors and incubated in selection conditions as described above. Selected clones were tested for cell surface expression of the TLR4/MD2 complex and CD14 by flow cytometry using monoclonal antibodies specific for the TLR4/MD2 complex or CD14.
NFκB-luciferase reporter assays. Activation of NFκB was measured using a NFκB-luciferase reporter assay. HEK 293 cell lines stably expressing TLR4, MD2 and/or CD14, or control cells were seeded into 24 well tissue culture plates (2×10^5 cells/well) in 1.0 ml DMEM containing 10% fetal bovine serum and penicillin and streptomycin. The cells were allowed to adhere to the culture wells at 37° C. overnight and were then transfected with […] NFκB-firefly-luciferase using Superfect Transfection Reagent (Qiagen). Following transfection, the cells were washed once with phosphate buffered saline and cultured for 24 hours at 37° C. in 1.0 ml DMEM containing 0.5% fetal bovine serum. After various treatments, the culture medium was aspirated and the cells were washed once with PBS. The cells were lysed in […] Passive Lysis Buffer (Promega) with rocking at room temperature for 15 minutes. Renilla- and Firefly-luciferase were assayed simultaneously using the Dual-Luciferase Reporter Assay System (Promega) and a TD-20/20 luminometer (Turner Designs, Sunnyvale, Calif.). Activation of NFκB was reported as a ratio of the firefly luciferase activity to the constitutively expressed Renilla luciferase internal control, and is the mean of triplicate wells.
To determine whether and under what conditions HS stimulates TLR4, various combinations of TLR4, MD2 and CD14, components of the putative TLR4 receptor complex, were stably expressed in HEK 293 cells and the effect of HS on TLR4 signaling in the transfected cells was examined (FIG. 1). The HEK 293 cells expressing receptor components were transiently transfected with a NFκB-firefly luciferase reporter construct along with a Renilla-luciferase internal control reporter construct. […]

[1] = HEK 293 cells lacking TLR4 and MD2 or CD14
[2] = HEK 293 cells that expressed TLR4, MD2, and CD14

heparan sulfate [HS]
Activation of NFκB-luciferase reporter [1]: did not respond | Activation of NFκB-luciferase reporter [2]: activated

elastase: pancreatic elastase (Calbiochem; type IV porcine pancreatic elastase, Sigma-Aldrich), protease that cleaves ECM proteins
NFκB reporter response to elastase alone (HEK/TLR4(+) cells cultured in ECM, elastase 0.1 U/ml, no HS): did not respond | NFκB reporter response to elastase alone (HEK/TLR4(+) cells cultured on ECM, elastase 0.3 U/ml): responded even without addition of HS | Activation in response to HS relative to cells not treated with elastase (HEK/TLR4(+) cells on ECM, elastase 0.1 U/ml plus HS): 2 fold | Activation of reporter expression after elastase pre-treatment and treatment with HS or LPS (HEK/TLR4(+) cells on PAEC ECM, versus control cells not pre-treated): greater | NFκB reporter response to elastase (HEK/TLR4(+) cells on fibronectin, elastase 0.1 or 0.3 U/ml): did not respond to either concentration of elastase

lipopolysaccharide [LPS]
Activation of NFκB-luciferase reporter [1]: did not respond | Activation of NFκB-luciferase reporter [2]: activated | Effect of nitrous acid treatment on ability to stimulate TLR4 (HEK/TLR4(+) cells, nitrous acid pH 4.0 or pH 1.5): did not affect
